According to article PMC3288262 (Bioorganic & medicinal chemistry letters, 2012):
Values joined by “and” are separate entries in the source; they are usually repeats but may differ in a detail not shown here. Identical values can stand only once. Marks after values point to notes of the source that are not given here. Starred links: 1 amine or outer side, 2 acyl side, 3 side chain; linkers in the order of their positions; H or OH if unused. Non-standard residues stand in square brackets, D forms with d. Residues, ends and D or L forms follow the SMILES beside them. Bcp = 4'-[N-((4'-phenyl)phenethyl)carboxamido]phenylalanine, O=C(NCCc1ccc(-c2ccccc2)cc1)c1ccc(C[C@H](N[*:1])C(=O)[*:2])cc1; Tic = O=C(O)[C@@H]1Cc2ccccc2CN1

Assays:
[1] = test system: μ opioid receptor (guinea pig ileum); test: guinea pig ileum; conditions: read-out: GPI IC50; agonist potency; P.A. = partial agonist
[2] = target: human δ opioid receptor (Homo sapiens, UniProt P41143); type: biochemical; conditions: mean of 3–6 determinations ± SEM; for [35S]GTPγS binding ED50: HEK293 cells, human δ opioid receptor
Sequence of human δ opioid receptor (P41143 whole entry): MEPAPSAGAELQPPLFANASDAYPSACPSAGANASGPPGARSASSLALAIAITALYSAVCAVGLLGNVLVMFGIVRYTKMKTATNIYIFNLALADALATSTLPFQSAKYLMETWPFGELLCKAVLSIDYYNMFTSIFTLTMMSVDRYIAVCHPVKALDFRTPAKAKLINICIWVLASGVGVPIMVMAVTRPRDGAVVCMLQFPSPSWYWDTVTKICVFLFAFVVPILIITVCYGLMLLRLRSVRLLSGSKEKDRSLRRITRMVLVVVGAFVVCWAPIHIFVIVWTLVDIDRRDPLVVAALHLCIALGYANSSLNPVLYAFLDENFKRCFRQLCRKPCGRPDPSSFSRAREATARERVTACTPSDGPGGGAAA

[3] = target: δ opioid receptor (mouse vas deferens, δ receptor-representative) (Mus musculus, UniProt P32300); conditions: read-out: MVD IC50; agonist potency; ref [10]; cited from earlier work
Sequence of δ opioid receptor (mouse vas deferens, δ receptor-representative) (P32300 whole entry): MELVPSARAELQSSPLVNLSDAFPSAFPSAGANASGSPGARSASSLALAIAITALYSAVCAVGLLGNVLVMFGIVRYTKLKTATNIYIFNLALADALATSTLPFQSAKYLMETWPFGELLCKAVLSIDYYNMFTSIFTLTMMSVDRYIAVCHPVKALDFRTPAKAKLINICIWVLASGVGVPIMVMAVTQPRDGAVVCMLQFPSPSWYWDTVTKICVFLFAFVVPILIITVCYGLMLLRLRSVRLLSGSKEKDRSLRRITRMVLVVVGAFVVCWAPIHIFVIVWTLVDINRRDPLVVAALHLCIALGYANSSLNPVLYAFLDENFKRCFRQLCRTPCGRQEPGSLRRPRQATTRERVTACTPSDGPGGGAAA

[4] = target: δ opioid receptors (Rattus norvegicus, UniProt P33533); conditions: ref [10], cited from earlier work
Sequence of δ opioid receptors (P33533 whole entry): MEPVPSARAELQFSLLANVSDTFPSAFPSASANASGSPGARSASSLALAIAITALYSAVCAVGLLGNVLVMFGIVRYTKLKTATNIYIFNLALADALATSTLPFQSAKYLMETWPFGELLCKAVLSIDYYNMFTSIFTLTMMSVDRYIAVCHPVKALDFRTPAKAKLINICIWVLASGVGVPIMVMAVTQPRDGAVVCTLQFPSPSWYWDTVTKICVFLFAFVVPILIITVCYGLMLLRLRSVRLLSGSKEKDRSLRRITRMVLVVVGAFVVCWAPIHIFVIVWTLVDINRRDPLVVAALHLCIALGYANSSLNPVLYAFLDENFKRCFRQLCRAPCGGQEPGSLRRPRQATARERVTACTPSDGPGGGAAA

[5] = target: μ opioid receptors (Rattus norvegicus, UniProt P33535); conditions: read-out: Ki^μ; [3H]DAMGO displacement, rat brain membranes; ref [10]; cited from earlier work
Sequence of μ opioid receptors (P33535 whole entry): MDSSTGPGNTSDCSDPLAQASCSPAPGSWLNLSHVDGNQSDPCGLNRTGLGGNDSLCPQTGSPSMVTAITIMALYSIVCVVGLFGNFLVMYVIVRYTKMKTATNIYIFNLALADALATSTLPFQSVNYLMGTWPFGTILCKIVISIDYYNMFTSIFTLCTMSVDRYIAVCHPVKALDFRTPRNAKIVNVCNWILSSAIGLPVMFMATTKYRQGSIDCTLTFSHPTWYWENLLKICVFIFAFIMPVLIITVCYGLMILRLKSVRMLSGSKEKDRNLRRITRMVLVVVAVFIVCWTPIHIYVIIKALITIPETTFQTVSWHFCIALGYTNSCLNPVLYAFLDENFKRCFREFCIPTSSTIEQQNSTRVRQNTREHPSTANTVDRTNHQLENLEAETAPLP

[6] = test system: μ opioid receptor (guinea pig ileum); conditions: partial agonist, IC40 given in IC50 column; ref [10]; cited from earlier work

Molecule	IC50 [1]	[35S]GTPγS binding ED50 [2]	IC50 [3]	Ki ([4]; read-out: Ki^δ, [3H]DSLET displacement, rat brain membranes)	Ki [5]	GPI IC40 [6]	[35S]GTPγS binding efficacy e ([2]; efficacy relative to DPDPE (e = 1.0))	Ki^μ/Ki^δ ([4]; δ vs. μ receptor binding selectivity)
N[C@@H](Cc1ccc(O)cc1)C(=O)N1Cc2ccccc2C[C@H]1C(=O)N[C@@H](Cc1ccccc1)C(=O)N[C@@H](Cc1ccccc1)C(=O)O [TIPP, H-Tyr-Tic-Phe-Phe-OH, reference compound] (H-Y[Tic]FF-OH)	> 10 µM	antagonist						
H-Bcp-Tic-Phe-Phe-OH (H-[Bcp][Tic]FF-OH) [Compound 13]			3.42 ± 0.36 nM	0.605 ± 0.058 nM	87.7 ± 8 nM			
H-Bcp-Tic-Phe-Phe-OH [Compound 13]		0.413 ± 0.015 nM				223 ± 37 (IC40) ^d nM	0.678 and 0.678 ± 0.076	145
